Tests used:
[1] = refractive index (Na D-line) (dimensionless); details: 101.33 kPa, Liquid, Standard Abbe refractometry
[2] = 101.33 kPa, Liquid
[3] = xn = mol fraction of the nth substance listed; details: 101 kPa, Liquid
[4] = excess molar enthalpy (molar enthalpy of mixing); xn = mol fraction of the nth substance listed; details: 101 kPa, Liquid

CCCCO [butan-1-ol]
[1]
Details | refractive index
298.15 K | 1.3968
318.15 K | 1.39

[2], Vibrating tube method
Details | mass density [kg/m3]
298.15 K | 805.95
318.15 K | 790.27

CCO [ethanol]
[1]
Details | refractive index
298.15 K | 1.36
318.15 K | 1.3548

[2], Vibrating tube method
Details | mass density [kg/m3]
298.15 K | 785.15
318.15 K | 767.57

CCCC[n+]1cccc(C)c1.F[B-](F)(F)F [1-butyl-3-methylpyridinium tetrafluoroborate]
Details | mass density, [2] [kg/m3] | refractive index, [1]
298.15 K | 1182.19 | 1.4473
318.15 K | 1168.31 | 1.4422

CCCC[n+]1cccc(C)c1.F[B-](F)(F)F [1-butyl-3-methylpyridinium tetrafluoroborate] + O
Details | excess molar enthalpy [kJ/mol] | mass density [kg/m3]
[3], 298.15 K, x1 = 0.0182 | – | 1027.1
[3], 298.15 K, x1 = 0.0376 | – | 1050.3
[3], 298.15 K, x1 = 0.0567 | – | 1067.1
[3], 298.15 K, x1 = 0.0995 | – | 1093.7
[3], 298.15 K, x1 = 0.1608 | – | 1116.8
[3], 298.15 K, x1 = 0.2208 | – | 1131.4
[3], 298.15 K, x1 = 0.2975 | – | 1143.6
[3], 298.15 K, x1 = 0.3909 | – | 1154
[3], 298.15 K, x1 = 0.4861 | – | 1161.5
[3], 298.15 K, x1 = 0.5827 | – | 1167.2
[3], 298.15 K, x1 = 0.6761 | – | 1171.8
[3], 298.15 K, x1 = 0.8091 | – | 1176.6
[3], 298.15 K, x1 = 0.8376 | – | 1177.6
[3], 298.15 K, x1 = 0.8942 | – | 1179.4
[3], 318.15 K, x1 = 0.0466 | – | 1046.8
[3], 318.15 K, x1 = 0.1004 | – | 1080.4
[3], 318.15 K, x1 = 0.1523 | – | 1099.8
[3], 318.15 K, x1 = 0.1991 | – | 1112.4
[3], 318.15 K, x1 = 0.251 | – | 1122.2
[3], 318.15 K, x1 = 0.3038 | – | 1130.2
[3], 318.15 K, x1 = 0.4108 | – | 1141.5
[3], 318.15 K, x1 = 0.5062 | – | 1148.8
[3], 318.15 K, x1 = 0.5822 | – | 1153.3
[3], 318.15 K, x1 = 0.7042 | – | 1158.9
[3], 318.15 K, x1 = 0.7551 | – | 1160.9
[3], 318.15 K, x1 = 0.7904 | – | 1162.3
[3], 318.15 K, x1 = 0.8123 | – | 1163.2
[3], 318.15 K, x1 = 0.8988 | – | 1165.7
[3], 318.15 K, x1 = 0.918 | – | 1166.3
[4], 298.15 K, x1 = 0.006 | 0.078 | –
[4], 298.15 K, x1 = 0.0137 | 0.167 | –
[4], 298.15 K, x1 = 0.0226 | 0.266 | –
[4], 298.15 K, x1 = 0.0328 | 0.374 | –
[4], 298.15 K, x1 = 0.0448 | 0.489 | –
[4], 298.15 K, x1 = 0.058 | 0.609 | –
[4], 298.15 K, x1 = 0.0724 | 0.732 | –
[4], 298.15 K, x1 = 0.0876 | 0.858 | –
[4], 298.15 K, x1 = 0.1038 | 0.982 | –
[4], 298.15 K, x1 = 0.1204 | 1.1 | –
[4], 298.15 K, x1 = 0.1234 | 1.12 | –
[4], 298.15 K, x1 = 0.1415 | 1.25 | –
[4], 298.15 K, x1 = 0.1713 | 1.36 | –
[4], 298.15 K, x1 = 0.1993 | 1.47 | –
[4], 298.15 K, x1 = 0.2307 | 1.55 | –
[4], 298.15 K, x1 = 0.2676 | 1.62 | –
[4], 298.15 K, x1 = 0.3091 | 1.64 | –
[4], 298.15 K, x1 = 0.3573 | 1.6 | –
[4], 298.15 K, x1 = 0.4051 | 1.53 | –
[4], 298.15 K, x1 = 0.4511 | 1.46 | –
[4], 298.15 K, x1 = 0.5139 | 1.33 | –
[4], 298.15 K, x1 = 0.6139 | 1.09 | –
[4], 298.15 K, x1 = 0.7899 | 0.631 | –
[4], 318.15 K, x1 = 0.0058 | 0.095 | –
[4], 318.15 K, x1 = 0.0136 | 0.217 | –
[4], 318.15 K, x1 = 0.0231 | 0.352 | –
[4], 318.15 K, x1 = 0.0339 | 0.487 | –
[4], 318.15 K, x1 = 0.0459 | 0.623 | –
[4], 318.15 K, x1 = 0.0605 | 0.769 | –
[4], 318.15 K, x1 = 0.0774 | 0.927 | –
[4], 318.15 K, x1 = 0.0961 | 1.09 | –
[4], 318.15 K, x1 = 0.1167 | 1.25 | –
[4], 318.15 K, x1 = 0.1225 | 1.28 | –
[4], 318.15 K, x1 = 0.1348 | 1.38 | –
[4], 318.15 K, x1 = 0.1378 | 1.4 | –
[4], 318.15 K, x1 = 0.1574 | 1.54 | –
[4], 318.15 K, x1 = 0.1845 | 1.68 | –
[4], 318.15 K, x1 = 0.2023 | 1.82 | –
[4], 318.15 K, x1 = 0.2358 | 1.94 | –
[4], 318.15 K, x1 = 0.2685 | 2.04 | –
[4], 318.15 K, x1 = 0.3026 | 2.1 | –
[4], 318.15 K, x1 = 0.3403 | 2.15 | –
[4], 318.15 K, x1 = 0.3889 | 2.14 | –
[4], 318.15 K, x1 = 0.4492 | 2.06 | –
[4], 318.15 K, x1 = 0.5301 | 1.89 | –
[4], 318.15 K, x1 = 0.6433 | 1.53 | –
[4], 318.15 K, x1 = 0.8206 | 0.841 | –

Source: the NIST ThermoML archive (doi:10.1021/je700294p)
